Test system: HepG2, MCF-7, MDA-MB-231 and HeLa cell lines
Assay: MTT cytotoxicity assay, panel of four cell lines
Type: cell-based
Conditions: Homo sapiens, range over HepG2, MCF-7, MDA-MB-231, HeLa, read-out: IC50 values, range over the tested cell lines
From the text: The in vitro cytotoxicity for the final target compounds, 4(a–d), 5(a–f), and 6(a–b), was preliminarily evaluated via the MTT colorimetric assay against a panel of four human cell lines, namely, the hepatocellular carcinoma (HepG2), mammary gland (MCF-7), breast cancer (MDA-MB-231) and epithelioid cervix carcinoma (HeLa).
The cytotoxicity of the target hybrids was examined by an MTT assay against HepG2, HeLa, MCF-7, and MDA-MB-231. At first, the RPMI-1640 medium with 10% fetal bovine serum was used to cultivate the cell lines. Then, antibiotics (penicillin (100 units/mL) and streptomycin (100 µg/mL)) were added in a 37 °C incubator in 5% CO2. The cell lines were seeded in a 96-well plate at a density of 1.0 × 10^4 cells/well at 37 °C under 5% CO2 for 48 h. After incubation, the cells were treated with various concentrations of the synthesized compounds and incubated for an additional 24 h. Following the drug treatment, 20 µL of 5 mg/mL MTT solution was added and incubated for 4 h. To dissolve the purple formazan that had formed, 100 µL dimethyl sulfoxide (DMSO) was added to each well. At a wavelength of 570 nm, the colorimetric assay was recorded and measured, using a plate reader BioTek EXL 800 (Agilent Technologies, Inc., Santa Clara, CA, USA). The percentage of relative cell viability was counted using the following formula (A570 of handled specimens/A570 of the unhandled specimen), multiplied by 100. The results of the cytotoxicity value were presented as the median growth inhibitory concentration (IC50) of the reagents compared to the control.

Compound: O=C(CSc1nc2ccccc2o1)NN=Cc1ccc[nH]1 (mixture of isomers) [Compound 6b, (E/Z)-N′-((1H-pyrrol-2-yl)methylene)-2-(benzo[d]oxazol-2-ylthio)acetohydrazide]
- IC50: 2.14 to 19.3 µM
